What all share (experiment): two-electrode voltage clamp, Xenopus oocytes
For orientation: In two-electrode clamp one electrode senses voltage and the other passes current.

Test [1] deals with T1, zGlyRα3/ßb (Danio rerio, UniProt A0A8M1PA31+Q6DC22).
T1 construct: gene glra3; full-length cDNAs in pCS2+, cRNAs co-injected 1:1 in Xenopus laevis oocytes; heteropentamer
T1 sequence (A0A8M1PA31 28-450): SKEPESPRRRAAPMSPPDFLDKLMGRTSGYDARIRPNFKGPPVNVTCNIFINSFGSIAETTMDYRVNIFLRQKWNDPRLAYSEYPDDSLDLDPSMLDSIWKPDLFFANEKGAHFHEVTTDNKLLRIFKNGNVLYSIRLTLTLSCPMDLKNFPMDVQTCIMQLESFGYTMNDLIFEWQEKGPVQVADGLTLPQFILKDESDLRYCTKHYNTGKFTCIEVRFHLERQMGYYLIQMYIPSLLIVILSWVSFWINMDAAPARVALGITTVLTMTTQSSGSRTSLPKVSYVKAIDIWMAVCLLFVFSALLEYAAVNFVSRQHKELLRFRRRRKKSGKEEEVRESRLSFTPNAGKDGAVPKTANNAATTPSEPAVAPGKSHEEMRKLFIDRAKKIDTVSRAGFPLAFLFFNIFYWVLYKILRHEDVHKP
T1 sequence (Q6DC22 23-494): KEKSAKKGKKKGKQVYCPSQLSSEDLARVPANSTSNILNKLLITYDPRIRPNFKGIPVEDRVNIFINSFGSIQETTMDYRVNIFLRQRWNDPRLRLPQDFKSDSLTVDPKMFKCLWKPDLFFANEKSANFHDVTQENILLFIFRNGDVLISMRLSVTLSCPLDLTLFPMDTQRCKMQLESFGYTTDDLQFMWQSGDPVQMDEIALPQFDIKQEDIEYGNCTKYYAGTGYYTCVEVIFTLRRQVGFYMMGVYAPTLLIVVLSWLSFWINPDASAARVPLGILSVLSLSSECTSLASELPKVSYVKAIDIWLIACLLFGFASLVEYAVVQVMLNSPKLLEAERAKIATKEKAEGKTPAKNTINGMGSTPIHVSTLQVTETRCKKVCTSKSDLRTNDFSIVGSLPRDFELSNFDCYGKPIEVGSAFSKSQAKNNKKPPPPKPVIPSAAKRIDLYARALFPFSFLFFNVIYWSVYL
The format is cell-based. An excerpt: two-electrode voltage clamp, Xenopus oocytes on zGlyRα3/ßb

Test [2] relates to T2, zGlyRα1/ßa.
T2 construct: gene glra1; full-length cDNAs in pCS2+, cRNAs co-injected 1:1 in Xenopus laevis oocytes; heteropentamer
The format is cell-based, Danio rerio. The note with it: -50 mV, pH 7.5, heteromers alpha:beta cRNA 1:1. An excerpt: two-electrode voltage clamp, Xenopus oocytes on zGlyRα1/ßa

Test [3] deals with T3, zGlyRα2 homomer (Danio rerio, UniProt F1R8P4).
T3 construct: gene glra2; full-length cDNA in pCS2+, Kozak added; cRNA in Xenopus laevis oocytes; homopentamer; not the earlier 'zGlyRα2' (now α4a)
T3 sequence (F1R8P4 28-449): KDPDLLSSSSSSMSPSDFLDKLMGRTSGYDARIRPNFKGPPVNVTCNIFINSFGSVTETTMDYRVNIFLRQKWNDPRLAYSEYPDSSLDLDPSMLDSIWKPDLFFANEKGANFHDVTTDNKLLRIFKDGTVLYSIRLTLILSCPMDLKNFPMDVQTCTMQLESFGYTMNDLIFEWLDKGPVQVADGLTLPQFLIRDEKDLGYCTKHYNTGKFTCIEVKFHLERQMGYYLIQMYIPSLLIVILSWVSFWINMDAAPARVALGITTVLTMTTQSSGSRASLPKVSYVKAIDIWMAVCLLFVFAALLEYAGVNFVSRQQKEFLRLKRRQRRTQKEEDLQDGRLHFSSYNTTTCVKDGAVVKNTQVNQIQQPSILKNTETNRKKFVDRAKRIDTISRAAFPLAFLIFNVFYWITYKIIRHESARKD
The format is cell-based. The source says:
two-electrode voltage clamp, Xenopus oocytes on zGlyRα2 homomer

The target in test [4] is T4, zGlyRα4b homomer (Danio rerio, UniProt A0A8M1P2L1).
T4 construct: gene glra4b; full-length cDNA in pCS2+, Kozak added; cRNA in Xenopus laevis oocytes; homopentamer
T4 sequence (A0A8M1P2L1 25-492): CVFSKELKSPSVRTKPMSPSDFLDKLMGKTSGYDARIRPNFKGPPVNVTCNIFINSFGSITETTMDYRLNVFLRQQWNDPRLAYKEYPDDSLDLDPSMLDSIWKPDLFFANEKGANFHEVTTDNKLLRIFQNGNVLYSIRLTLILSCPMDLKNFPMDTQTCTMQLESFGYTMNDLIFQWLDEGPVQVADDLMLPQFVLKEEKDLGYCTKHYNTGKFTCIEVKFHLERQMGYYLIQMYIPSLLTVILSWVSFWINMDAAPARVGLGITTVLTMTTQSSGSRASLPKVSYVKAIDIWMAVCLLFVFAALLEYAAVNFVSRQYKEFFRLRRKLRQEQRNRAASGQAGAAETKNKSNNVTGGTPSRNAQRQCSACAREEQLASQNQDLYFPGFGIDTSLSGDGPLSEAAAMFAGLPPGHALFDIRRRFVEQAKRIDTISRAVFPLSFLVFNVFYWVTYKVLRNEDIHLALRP
The format is cell-based. An excerpt:
two-electrode voltage clamp, Xenopus oocytes on zGlyRα4b homomer

Test [5] concerns the target T5, zGlyRα4a homomer (Danio rerio, UniProt F1RDZ6).
T5 construct: gene glra4a; full-length cDNA in pCS2+, Kozak added; cRNA in Xenopus laevis oocytes; homopentamer
T5 sequence (F1RDZ6 28-457): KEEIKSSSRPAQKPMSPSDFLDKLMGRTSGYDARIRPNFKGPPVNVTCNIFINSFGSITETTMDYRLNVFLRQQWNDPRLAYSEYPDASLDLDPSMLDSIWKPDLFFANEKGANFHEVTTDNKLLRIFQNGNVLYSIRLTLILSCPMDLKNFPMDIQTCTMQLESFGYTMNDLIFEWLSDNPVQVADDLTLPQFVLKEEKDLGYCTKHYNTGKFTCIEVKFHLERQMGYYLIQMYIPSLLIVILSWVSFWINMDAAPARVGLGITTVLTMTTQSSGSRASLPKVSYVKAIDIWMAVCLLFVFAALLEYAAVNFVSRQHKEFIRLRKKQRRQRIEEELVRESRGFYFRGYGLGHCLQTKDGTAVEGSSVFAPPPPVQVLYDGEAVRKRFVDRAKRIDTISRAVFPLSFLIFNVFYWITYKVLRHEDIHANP
The format is cell-based. An excerpt:
two-electrode voltage clamp, Xenopus oocytes on zGlyRα4a homomer

The target of test [6] is T6, zGlyRα4a/ßb (Danio rerio, UniProt F1RDZ6+Q6DC22).
T6 construct: gene glra4a; full-length cDNAs in pCS2+, cRNAs co-injected 1:1 in Xenopus laevis oocytes; heteropentamer
T6 sequence (F1RDZ6 28-457): T5 sequence (F1RDZ6 28-457)
T6 sequence (Q6DC22 23-494): T1 sequence (Q6DC22 23-494)
The class given is cell-based. An excerpt:
two-electrode voltage clamp, Xenopus oocytes on zGlyRα4a/ßb

Test [7] has as its target T7, zGlyRα1 homomer (Danio rerio, UniProt O93430).
T7 construct: gene glra1; full-length cDNA in pCS2+, Kozak added; cRNA in Xenopus laevis oocytes; homopentamer
T7 sequence (O93430 25-444): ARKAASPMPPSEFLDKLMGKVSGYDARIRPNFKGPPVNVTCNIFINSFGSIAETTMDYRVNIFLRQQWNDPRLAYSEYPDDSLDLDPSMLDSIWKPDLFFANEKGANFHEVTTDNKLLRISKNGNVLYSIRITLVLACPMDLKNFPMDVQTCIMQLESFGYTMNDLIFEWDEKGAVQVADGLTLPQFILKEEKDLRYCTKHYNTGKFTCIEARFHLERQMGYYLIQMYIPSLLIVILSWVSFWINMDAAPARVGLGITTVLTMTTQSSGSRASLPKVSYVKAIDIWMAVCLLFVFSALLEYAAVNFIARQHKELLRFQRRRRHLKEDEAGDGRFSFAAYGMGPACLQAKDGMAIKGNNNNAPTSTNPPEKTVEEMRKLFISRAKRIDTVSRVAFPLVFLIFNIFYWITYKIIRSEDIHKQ
The format is cell-based. An excerpt:
two-electrode voltage clamp, Xenopus oocytes on zGlyRα1 homomer

Test [8] concerns the target T8, zGlyRα4b/ßa (Danio rerio, UniProt A0A8M1P2L1+A0ACM8PZL4).
T8 construct: gene glra4b; full-length cDNAs in pCS2+, cRNAs co-injected 1:1 in Xenopus laevis oocytes; heteropentamer
The class given is cell-based. The source says: two-electrode voltage clamp, Xenopus oocytes on zGlyRα4b/ßa

Test [9] has as its system T9, zGlyRα1/ßb.
T9 construct: gene glra1; full-length cDNAs in pCS2+, cRNAs co-injected 1:1 in Xenopus laevis oocytes; heteropentamer
The format is cell-based, Danio rerio. The note with it: -50 mV, pH 7.5, heteromers alpha:beta cRNA 1:1. An excerpt: two-electrode voltage clamp, Xenopus oocytes on zGlyRα1/ßb

The target in test [10] is T10, zGlyRα4b/ßb (Danio rerio, UniProt A0A8M1P2L1+Q6DC22).
T10 construct: gene glra4b; full-length cDNAs in pCS2+, cRNAs co-injected 1:1 in Xenopus laevis oocytes; heteropentamer
T10 sequence (A0A8M1P2L1 25-492): T4 sequence (A0A8M1P2L1 25-492)
T10 sequence (Q6DC22 23-494): T1 sequence (Q6DC22 23-494)
The format is cell-based. An excerpt:
two-electrode voltage clamp, Xenopus oocytes on zGlyRα4b/ßb

Test [11] deals with T11, zGlyRα3 homomer (Danio rerio, UniProt A0A8M1PA31).
T11 construct: gene glra3; full-length cDNA in pCS2+, Kozak added; cRNA in Xenopus laevis oocytes; homopentamer
T11 sequence (A0A8M1PA31 28-450): T1 sequence (A0A8M1PA31 28-450)
The class given is cell-based. The source says:
two-electrode voltage clamp, Xenopus oocytes on zGlyRα3 homomer

The target of test [12] is T12, zGlyRα2/ßa (Danio rerio, UniProt A0ACM8PZL4+F1R8P4).
T12 construct: gene glra2; full-length cDNAs in pCS2+, cRNAs co-injected 1:1 in Xenopus laevis oocytes; heteropentamer
T12 sequence (A0ACM8PZL4 23-498, one chain of several): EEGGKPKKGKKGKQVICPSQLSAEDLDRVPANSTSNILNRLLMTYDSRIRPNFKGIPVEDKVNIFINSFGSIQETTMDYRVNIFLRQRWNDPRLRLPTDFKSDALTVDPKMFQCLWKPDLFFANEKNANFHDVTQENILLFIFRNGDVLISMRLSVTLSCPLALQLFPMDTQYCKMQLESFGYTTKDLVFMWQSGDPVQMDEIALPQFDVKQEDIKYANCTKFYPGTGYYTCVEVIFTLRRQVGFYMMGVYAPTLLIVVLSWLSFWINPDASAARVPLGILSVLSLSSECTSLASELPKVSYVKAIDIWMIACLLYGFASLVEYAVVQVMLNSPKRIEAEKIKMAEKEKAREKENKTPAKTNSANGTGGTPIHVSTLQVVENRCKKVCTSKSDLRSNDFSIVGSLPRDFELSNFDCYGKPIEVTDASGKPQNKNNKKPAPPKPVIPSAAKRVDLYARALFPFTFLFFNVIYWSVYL
The class given is cell-based. An excerpt:
two-electrode voltage clamp, Xenopus oocytes on zGlyRα2/ßa

For test [13], the target named is T13, zGlyRα3/ßa (Danio rerio, UniProt A0A8M1PA31+A0ACM8PZL4).
T13 construct: gene glra3; full-length cDNAs in pCS2+, cRNAs co-injected 1:1 in Xenopus laevis oocytes; heteropentamer
T13 sequence (A0ACM8PZL4 23-498, one chain of several): as above
The class given is cell-based. An excerpt: two-electrode voltage clamp, Xenopus oocytes on zGlyRα3/ßa

Test [14] addresses T14, zGlyRα4a/ßa (Danio rerio, UniProt A0ACM8PZL4+F1RDZ6).
T14 construct: gene glra4a; full-length cDNAs in pCS2+, cRNAs co-injected 1:1 in Xenopus laevis oocytes; heteropentamer
The class given is cell-based. An excerpt:
two-electrode voltage clamp, Xenopus oocytes on zGlyRα4a/ßa

Test [15] deals with T15, zGlyRα2/ßb (Danio rerio, UniProt F1R8P4+Q6DC22).
T15 construct: gene glra2; full-length cDNAs in pCS2+, cRNAs co-injected 1:1 in Xenopus laevis oocytes; heteropentamer
T15 sequence (F1R8P4 28-449): T3 sequence (F1R8P4 28-449)
T15 sequence (Q6DC22 23-494): T1 sequence (Q6DC22 23-494)
The class given is cell-based. An excerpt:
two-electrode voltage clamp, Xenopus oocytes on zGlyRα2/ßb

Setting [16] is: read-out: Glycine / EC50, agonist.
Setting [17] is: read-out: Strychnine / IC50, competitive antagonist, block of current evoked by 200 μM glycine.

T14 sequence (A0ACM8PZL4 23-498, one chain of several): as above
T8 sequence (A0ACM8PZL4 23-498, one chain of several): as above

`NCC(=O)O` [glycine]: the EC50 in test [1] came to 260 ± 20 µM; in test [2] (setting [16]), 186 ± 10 µM; in test [3], 138 ± 10 µM; in [4] it was 134 ± 15 µM; in test [5], 200 ± 16 µM; in test [6], 404 ± 24 µM. Also, the EC50 was determined as 102 ± 5.8 µM in test [7]; 236 ± 17 µM in test [8]; 194 ± 18 µM in test [9] (setting [16]); 221 ± 15 µM in test [10]; 125 ± 7.9 µM in test [11]; 307 ± 30 µM in test [12]. The EC50 is 521 ± 52 µM in [13], 458 ± 82 µM in test [14] and 343 ± 64 µM in test [15].
Turning to `O=C1C[C@@H]2OCC=C3CN4CC[C@]56c7ccccc7N1[C@H]5[C@H]2[C@H]3C[C@H]46` [strychnine], the IC50 in test [1] amounted to 0.041 ± 0.0081 µM; in test [2] (setting [17]) it was 0.012 ± 0.004 µM; in test [3] it was 0.212 ± 0.037 µM; in test [4], 0.052 ± 0.011 µM; in test [5], 0.055 ± 0.012 µM; in [6], 0.018 ± 0.0026 µM. In addition, the IC50 in test [8] worked out at 0.081 ± 0.016 µM; in test [9] (setting [17]) it was 0.074 ± 0.017 µM; in [10], 0.021 ± 0.0031 µM; in test [11] it was 0.021 ± 0.008 µM; in [12] it was 0.292 ± 0.043 µM; in [13], 0.083 ± 0.016 µM. Further, the IC50 in test [14] was 0.043 ± 0.022 µM; in [15], 0.121 ± 0.016 µM.

Source of the values: publication PMC6130310 (Frontiers in Molecular Neuroscience, 2018).
